Laboratory results taken from ChEMBL document CHEMBL1131552, “Identification of side chains on 1,2,5-thiadiazole-azacycles optimal for muscarinic m1 receptor activation” (Bioorg Med Chem Lett, 1998).
pEC50: −log10 of the molar value.

Assays:
[1] = biological target: T1, Muscarinic acetylcholine receptor M1 (Homo sapiens, UniProt P11229)
T1 sequence (P11229 whole entry): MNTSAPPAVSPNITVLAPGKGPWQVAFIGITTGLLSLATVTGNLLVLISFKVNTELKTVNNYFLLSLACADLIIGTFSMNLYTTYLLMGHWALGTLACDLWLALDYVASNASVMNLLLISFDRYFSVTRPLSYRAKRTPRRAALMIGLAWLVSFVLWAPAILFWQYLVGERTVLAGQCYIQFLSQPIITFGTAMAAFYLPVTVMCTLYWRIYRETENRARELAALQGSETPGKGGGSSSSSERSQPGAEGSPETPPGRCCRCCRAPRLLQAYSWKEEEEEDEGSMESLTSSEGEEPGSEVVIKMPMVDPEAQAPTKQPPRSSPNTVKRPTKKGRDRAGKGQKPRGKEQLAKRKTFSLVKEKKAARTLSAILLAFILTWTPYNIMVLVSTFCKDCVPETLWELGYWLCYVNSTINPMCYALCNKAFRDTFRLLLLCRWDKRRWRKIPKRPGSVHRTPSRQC
Description: Stimulation of phosphoinositide hydrolysis in A9L cells expressing human m1 receptor

[2] = biological target: Muscarinic acetylcholine receptor
[3] = biological target: T2, Muscarinic acetylcholine receptor M2 (Homo sapiens, UniProt P08172)
T2 sequence (P08172 whole entry): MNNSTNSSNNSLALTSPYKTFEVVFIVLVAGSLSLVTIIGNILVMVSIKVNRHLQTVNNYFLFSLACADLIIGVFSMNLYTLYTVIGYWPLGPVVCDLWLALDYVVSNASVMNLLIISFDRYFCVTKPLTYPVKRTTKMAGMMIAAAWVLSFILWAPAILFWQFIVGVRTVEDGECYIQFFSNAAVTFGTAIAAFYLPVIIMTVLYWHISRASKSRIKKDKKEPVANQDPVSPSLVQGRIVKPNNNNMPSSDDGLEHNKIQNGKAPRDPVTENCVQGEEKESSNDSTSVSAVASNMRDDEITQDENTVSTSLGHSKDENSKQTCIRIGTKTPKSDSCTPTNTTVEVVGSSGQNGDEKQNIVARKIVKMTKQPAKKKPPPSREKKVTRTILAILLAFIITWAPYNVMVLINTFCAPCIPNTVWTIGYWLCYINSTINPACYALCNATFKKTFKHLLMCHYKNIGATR
Description: Stimulation of cAMP in CHO cells expressing human m2 receptor

[4] = biological target: T3, Muscarinic acetylcholine receptor M1 (Homo sapiens) (UniProt P11229); test: Stimulation of phosphoinositide hydrolysis in BHK cells; type: functional, cell-based
T3 sequence (whole entry): T1 sequence (P11229 whole entry)

[5] = biological target: Muscarinic acetylcholine receptor; test: Binding affinity against muscarinic receptor in rat brain membranes using oxotremorine-M as ligand; type: cell membranes
[6] = biological target: T1, Muscarinic acetylcholine receptor M1; test: Effective concentration required for stimulation of phosphoinositide hydrolysis in A9L cells expressing human m1 receptor; type: functional, cell-based
[7] = Potency ratio of EC50 of the CHO cell lines to that of A9L cell lines was calculated; type: functional

| SMILES | IC50 [2] [nM] | pEC50 [3] | further results |
| --- | --- | --- | --- |
| C(#Cc1ccccc1)CSc1nsnc1[C@@H]1CN2CCC[C@H]1C2 | 363 | < 5.00 | pEC50 [1]: 9.00 |
| CN1CCC=C(c2nsnc2SCCc2ccccc2)C1 | 23 |  |  |
| CCCOc1nsnc1C1=CCCN(C)C1 | 1.6 |  |  |
| c1ccc(CCCSc2nsnc2[C@H]2CN3CCC[C@H]2C3)cc1 | 1.3 |  |  |
| C(#Cc1ccccc1)COc1nsnc1[C@H]1CN2CCC1C2 (stereo not given in full) | 0.8 | 7.96 | pEC50 [1]: 9.00 |
| COc1cccc(C#CCO/N=C2\CN3CCC2C3)c1 (stereo not given) | 167 | 4.55 | Max PI [4]: 14%; pEC50 [1]: < 6.00 |
| CN1CCC=C(c2nsnc2OCCCCc2ccccc2)C1 | 20 |  |  |
| c1ccc(CCCSc2nsnc2[C@H]2CN3CC[C@H]2C3)cc1 | 1.7 |  |  |
| CCCCCCOc1nsnc1[C@@H]1CN2CC[C@H]1C2 (stereo in doubt; 13) | 16 |  |  |
| C(#Cc1ccccc1)COc1nsnc1[C@@H]1CN2CCC[C@H]1C2 | 66 | 6.64 | pEC50 [1]: 7.55 |
| CN1CCC=C(c2nsnc2OCc2ccccc2)C1 | 8 |  |  |
| C(#Cc1ccccc1)COc1nsnc1C12CN3CC1C2C3 | 14 | 6.11 | pEC50 [1]: 7.15 |
| C(#Cc1ccccc1)COc1nsnc1[C@@H]1CN2CC[C@H]1C2 | 20 | 5.96 | pEC50 [1]: 7.17 |
| C(#Cc1ccccc1)CSc1nsnc1[C@@H]1CN2CC[C@H]1C2 | 42 | 6.86 | pEC50 [1]: < 7.00 |
| c1ccc(CCCSc2nsnc2[C@@H]2CN3CCC[C@H]2C3)cc1 | 35 |  |  |
| COc1nsnc1C1=CCCN(C)C1 | 22 |  |  |
| C(#Cc1ccccc1)COc1nsnc1[C@H]1CN2CCC[C@H]1C2 | 1.2 | 8.05 | pEC50 [1]: 9.30 |
| C(#Cc1ccccc1)COc1nsnc1[C@H]1CN2CC[C@@H]1C2 | 41 | 5.97 | pEC50 [1]: 6.80 |
| CCCCCCOc1nsnc1[C@H]1CN2CCC[C@H]1C2 | 1.2 |  |  |

| SMILES | IC50 [2] [nM] | pEC50 [3] | further results |
| --- | --- | --- | --- |
| C(#Cc1ccccc1)COc1nsnc1[C@@H]1CN2CCC[C@@H]1C2 |  | 7.54 | IC50 [5]: 3.4 nM |
| CCCCCCCCOc1nsnc1C1=CCCN(C)C1 | 30 |  |  |
| C(#Cc1ccccc1)CSc1nsnc1[C@H]1CN2CCC[C@H]1C2 | 1.7 | 8.70 | pEC50 [6]: 9.70 |
| c1ccc(CCCSc2nsnc2C2CN3CCC2CC3)cc1 (stereo not given) | 14 |  |  |
| CCCCCCOc1nsnc1[C@@H]1CN2CC[C@H]1C2 (stereo in doubt; 26) | 6 |  |  |
| CCCCCCCOc1nsnc1C1=CCCN(C)C1 | 6.2 |  |  |
| CCCCCOc1nsnc1C1=CCCN(C)C1 | 2 |  |  |
| CN1CCC=C(c2nsnc2OCC#Cc2ccccc2)C1 | 8.5 | 6.62 | pEC50 [1]: 6.96; Potency ratio [7]: 2 |
| CCCCCCOc1nsnc1[C@@H]1CN2CCC[C@H]1C2 | 63 |  |  |
| CN1CCC=C(c2nsnc2SCCCc2ccccc2)C1 | 1.3 |  |  |
| CCCCCCOc1nsnc1C1CN2CCC1CC2 (stereo not given) | 4.3 |  |  |
| CN1CCC=C(c2nsnc2OCCc2ccccc2)C1 | 15 |  |  |
| CN1CCC=C(c2nsnc2OCCCc2ccccc2)C1 | 13 |  |  |
| CCOc1nsnc1C1=CCCN(C)C1 | 5.7 |  |  |
| C(#Cc1ccccc1)COc1nsnc1[C@H]1CN2CCC[C@@H]1C2 | 78 | 5.65 |  |
| CN1CCC=C(c2nsnc2SCc2ccccc2)C1 | 5.9 |  |  |
| C(#Cc1ccccc1)COc1nsnc1C1CN2CCC1CC2 (stereo not given) | 4.7 | 7.21 | pEC50 [1]: 7.80 |
| CCCCCCOc1nsnc1[C@H]1CN2CC[C@H]1C2 | 0.73 |  |  |
